Series [1] concerns MCF7. The series can be described thus: Growth inhibition of human MCF7 cells at 10 uM after 48 hrs. Format: functional.
Series [2] can be described thus: Drug degradation in culture medium assessed as dehydration. Format: physicochemical.
The subject of series [3] is MCF7. Briefly: Induction of cell cycle arrest in human MCF7 cells assessed as G0/G1 phase cells at 5 uM after 48 hrs by flow cytometric analysis (reference value: 35.6%). Format: functional. (In general: In flow cytometry, cells or beads pass a laser one at a time.)
In series [4] the test system is MCF7. The series can be described thus: Induction of apoptosis in human MCF7 cells after 48 hrs by Hoechst-staining method in presence of fetal calf serum. It counts as functional, cell-based.
Series [5] concerns MDA-MB-231. The series can be described thus: Induction of apoptosis in human MDA-MB-231 cells assessed as apoptotic bubbling at 1 to 10 uM after 48 hrs by Hoechst-staining method in absence of fetal calf serum. Format: functional, cell-based.
The subject of series [6] is MDA-MB-231. The series can be described thus: Induction of cell cycle arrest in human MDA-MB-231 cells assessed as subG0 phase cells at 5 uM after 48 hrs by propidium iodide-staining method in presence of fetal calf serum relative to control. It counts as functional.
For series [7], the system named is MDA-MB-231. Briefly: Induction of cell cycle arrest in human MDA-MB-231 cells assessed as decrease in G2/M phase cells at 5 uM after 48 hrs by flow cytometric analysis relative to control. Format: functional, cell-based.
The test system of series [8] is MDA-MB-231. The series can be described thus: Induction of apoptosis in human MDA-MB-231 cells assessed as pyknosis at 1 to 10 uM after 48 hrs by Hoechst-staining method in presence of fetal calf serum. It counts as functional, cell-based.
For series [9], the system named is MDA-MB-231. The series can be described thus: Induction of apoptosis in human MDA-MB-231 cells after 48 hrs by Hoechst-staining method in absence of fetal calf serum. Format: functional, cell-based.
Series [10] deals with MCF7. The series can be described thus: Induction of apoptosis in human MCF7 cells at 10 uM after 48 hrs by Hoechst-staining method in presence of fetal calf serum. Format: functional.
In series [11] the test system is MDA-MB-231. The series can be described thus: Induction of apoptosis in human MDA-MB-231 cells at 10 uM after 48 hrs by Hoechst-staining method in presence of fetal calf serum. Format: functional.
Series [12] relates to MDA-MB-231. Briefly: Induction of apoptosis in human MDA-MB-231 cells assessed as pyknosis at 1 to 10 uM after 48 hrs by Hoechst-staining method in absence of fetal calf serum. Format: functional, cell-based.
Series [13] deals with MCF7. Briefly: Induction of cell cycle arrest in human MCF7 cells assessed as S/G2 phase cells at 5 uM after 48 hrs by flow cytometric analysis (reference value: 17.8%). Format: functional.
Series [14] deals with MDA-MB-231. Briefly: Induction of cell cycle arrest in human MDA-MB-231 cells assessed as S phase cells at 5 uM after 48 hrs by flow cytometric analysis (reference value: 40.4%). It counts as functional.
The subject of series [15] is MCF7. Briefly: Induction of cell cycle arrest in human MCF7 cells assessed as S phase cells at 5 uM after 48 hrs by flow cytometric analysis (reference value: 46.6%). It counts as functional.
In series [16] the test system is MDA-MB-231. The series can be described thus: Induction of apoptosis in human MDA-MB-231 cells after 48 hrs by Hoechst-staining method in presence of fetal calf serum. It counts as functional, cell-based.
The subject of series [17] is MCF7. The series can be described thus: Induction of apoptosis in human MCF7 cells assessed as apoptotic bubbling at 1 to 10 uM after 48 hrs by Hoechst-staining method in absence of fetal calf serum. Format: functional, cell-based.
Series [18] relates to MCF7. The series can be described thus: Induction of apoptosis in human MCF7 cells after 48 hrs by Hoechst-staining method in absence of fetal calf serum. It counts as functional, cell-based.
The test system of series [19] is MCF7. Briefly: Induction of cell cycle arrest in human MCF7 cells assessed as subG0 phase cells at 5 uM after 48 hrs by propidium iodide-staining method in presence of fetal calf serum relative to control. Format: functional.
Series [20] has as its system MCF7. The series can be described thus: Growth inhibition of human MCF7 cells after 48 hrs in absence of fetal calf serum. It counts as functional, cell-based. As to conditions: MCF7, 48 h.
Series [21] has as its system MDA-MB-231. Briefly: Growth inhibition of human MDA-MB-231 cells after 48 hrs in absence of fetal calf serum. As to conditions: MDA-MB-231, 48 h. It counts as functional, cell-based.
The subject of series [22] is MDA-MB-231. The series can be described thus: Growth inhibition of human MDA-MB-231 cells after 48 hrs in presence of fetal calf serum. As to conditions: MDA-MB-231, 48 h. Format: functional, cell-based.
The test system of series [23] is MCF7. The series can be described thus: Induction of apoptosis in human MCF7 cells assessed as pyknosis at 1 to 10 uM after 48 hrs by Hoechst-staining method in absence of fetal calf serum. Format: functional, cell-based.
For series [24], the system named is MCF7. The series can be described thus: Induction of cell cycle arrest in human MCF7 cells assessed as subG0 phase cells at 5 uM after 48 hrs by propidium iodide-staining method in absence of fetal calf serum relative to control. It counts as functional.
For series [25], the system named is MCF7. The series can be described thus: Induction of apoptosis in human MCF7 cells assessed as apoptotic bubbling at 1 to 10 uM after 48 hrs by Hoechst-staining method in presence of fetal calf serum. Format: functional, cell-based.
The subject of series [26] is MDA-MB-231. Briefly: Induction of cell cycle arrest in human MDA-MB-231 cells assessed as subG0 phase cells at 5 uM after 48 hrs by propidium iodide-staining method in absence of fetal calf serum relative to control. It counts as functional.
The test system of series [27] is MDA-MB-231. The series can be described thus: Induction of cell cycle arrest in human MDA-MB-231 cells assessed as decrease in G0/G1 phase cells at 5 uM after 48 hrs by flow cytometric analysis relative to control. Format: functional, cell-based.
The test system of series [28] is MCF7. Briefly: Growth inhibition of human MCF7 cells after 48 hrs in presence of fetal calf serum. It counts as functional, cell-based. The settings on record: MCF7, 48 h.
Series [29] relates to MCF7. The series can be described thus: Induction of apoptosis in human MCF7 cells assessed as pyknosis at 1 to 10 uM after 48 hrs by Hoechst-staining method in presence of fetal calf serum. It counts as functional, cell-based.
The subject of series [30] is MDA-MB-231. Briefly: Induction of apoptosis in human MDA-MB-231 cells assessed as apoptotic bubbling at 1 to 10 uM after 48 hrs by Hoechst-staining method in presence of fetal calf serum. Format: functional, cell-based.
A short description of series [31]: Drug degradation in culture medium assessed as decarboxylation. It counts as physicochemical.
Series [32] has as its system T47D. The series can be described thus: Antiproliferative activity against human T47D cells after 5 days by MTT assay. Format: functional, cell-based. As to conditions: 120 h. On the technique in general: Formazan colour is commonly taken as a measure of viable cells.

The source made the active and inactive calls. No cut-off for these calls is given here.

Broadly, the IC50 is the point on the concentration scale where inhibition reaches its midpoint.

In the case of `COC(=O)C1C(O)c2cc(OC)c(O)c(OC)c2[C@@H](c2cc(OC)c(O)c(OC)c2)[C@@H]1C(=O)OC` (stereo partly drawn), the “growth inhibition (GI)” value in [1] is “Active”. The Stability result in [2] was “Unstable”.

On to `COC(=O)C1=Cc2cc(O)c(O)cc2[C@@H](c2ccc(O)c(O)c2)[C@@H]1C(=O)OC`, for which the Activity was 29.4% in [3]; “Dose-dependent effect” in series [4]; 20% in series [6]; “Dose-dependent effect” in [9]; 25% in series [10]; 25% in [11]. Besides, the Activity in [13] was 17%; in [14], 56.1%; in series [15] it was 34.7%; in series [16], “Dose-dependent effect”; in series [18], “Dose-dependent effect”; in [19], 20%. Also, the Activity in series [24] and in series [26] was 20% in each case. Also, the outcome in series [5], in series [7], in [8], in series [12], in series [17] and in series [23] was Active. In addition, the outcome in series [25], in series [27], in [29] and in series [30] was Active. Further, in series [1] (MCF7, 48 h, read-out: GI), the inhibition of growth at 10 µM worked out at 82%. Also, the IC50 was determined as 1 µM in [20], 5 µM in series [21], 5 µM in series [22] and 1 µM in [28].

For `COC(=O)C1=Cc2cc(OC)c(O)cc2[C@@H](c2ccc(O)c(OC)c2)[C@@H]1C(=O)OC`, in series [1], the “growth inhibition (GI)” value is “inactive”.

For the compound `CCOC(=O)C1=Cc2cc(O)c(O)cc2[C@@H](c2ccc(O)cc2)[C@@H]1C(=O)O` (relative stereo), the “growth inhibition (GI)” value in [1] is “Active”.

Regarding `COC(=O)C1=Cc2cc(OC)c(O)c(C)c2[C@@H](c2cc(C)c(O)c(OC)c2)[C@@H]1C(=O)OC`, the “growth inhibition (GI)” value in series [1] is “inactive”.

For the compound `O=C(O)C1=Cc2cc(O)c(O)cc2[C@@H](c2ccc(O)cc2)[C@@H]1C(=O)O` (relative stereo), the “growth inhibition (GI)” value in [1] was “Active”. Besides, the Stability result in series [31] was “Unstable”.

On to `O=C(O)/C=C/c1ccc(O)c(O)c1` [CAFFEIC ACID], for which the IC50 in [32] came out at 0.002 µM.

Turning to `CCOC(=O)C1=Cc2cc(O)c(O)cc2[C@@H](c2ccc(O)cc2)[C@@H]1C(=O)OCC` (relative stereo), in [1], the “growth inhibition (GI)” value was “Active”.

Source of the values: ChEMBL document CHEMBL2311359, “Antiproliferative and apoptotic effects of the oxidative dimerization product of methyl caffeate on human breast cancer cells” (Bioorg Med Chem Lett, 2013).
